Test results taken from patent US6583164B1, “Antimycotic drug composition” (Takeda Chemical Industries, Ltd., priority 1998, dated 2003).

Tested on: A. fumigatus TIMM1728
Experiment: Defensive effect against experimental Aspergillosis infection in neutropenic mice (prolonging life)
Format: in vivo
Settings: CDF1 female mice made neutropenic with cyclophosphamide; intravenous administration, 5 times; survival recorded for 10 days after infection
Protocol: Method: 6-week-old CDF1 female mice (n=5) were allowed to have neutropenia by intraperitoneally administering 200 mg/kg of cyclophosphamide, and after 4 days, 0.2 ml liquid of frozen and stored A. fumigatus TIMM1728 conidia, diluted 1000-fold, was inoculated into the tail veins of the mice (6×10^4 CFU/mouse). Compound 12 was dissolved in 5% saccharide solution (aqueous glucose solution) and intravenously administered into the mice 5 times, that is, once in 2 hours after the infection and daily twice for 2 days after the infection. The number of living mice was recorded for 10 days after the infection, to evaluate the effect of prolonging their life.

Question: For “4-acetoxymethyl-1-[(2R,3R)-2-(2,4-difluorophenyl)-2-hydroxy-3-[2-oxo-3-[4-(1H-tetrazol-1-yl)phenyl]-1-imidazolidinyl]butyl]-1H-1,2,4-triazolium chloride [Compound 12]”, which “Defensive effect (ED50)” value is on record?
Answer: Its value is 1.7 mg/kg.
